Patent publication US11660300B2, “Method of maintaining oral health in animals” (Boehringer Ingelheim Animal Health USA Inc., priority 2006, dated 2023)

Experiments:
Format in all cases: in vivo
calculus formation = test: Calculus formation in beagle dogs given delmopinol dog snack; conditions: for Number of teeth with calculus on the buccal surfaces of the teeth of the upper jaw: dogs 1-4 and Sum
Method: A study was carried out to investigate the effect of dog snacks containing delmopinol on gingivitis and calculus formation in beagle dogs. Eight female dogs were used in the study. […] During a pre-experimental period of four weeks, the teeth in the upper jaws of all dogs were scaled and polished professionally with a rubber cup, pumice and water, on a weekly basis. The teeth of the upper jaws were also thoroughly brushed with a toothbrush and water, for 2 minutes daily. The teeth in the lower jaws were not cleaned. During this pre-experimental period the dogs were fed a soft gingivitis-inducing diet. Using these procedures, two different clinical conditions prevailed in the dogs at the end of the pre-experimental period: in the upper jaw the gingiva was clinically healthy while in the lower jaws gingivitis prevailed. […] In the upper jaws, the presence of plaque and gingivitis was measured at the buccal surfaces of canines, first, second, third, fourth premolars and first molars. In the lower jaws the measurements were undertaken at the buccal surfaces of canines and first molars, in total […] were examined clinically. 12 surfaces were clinically healthy prior to the experimental period and 4 surfaces were not maintained with oral hygiene measures. All experimental procedures, (except the tooth brushing during the pre-experimental period) were performed with the dogs anaesthetized by intravenous Pentothal (Abbot, Belgium). […] The various measurements were taken on days 0, 14 and 28. Clinical photos were taken of the upper jaws at the same occasions as the measurements. Presence or absence of calculus was noted on the buccal surfaces of the teeth in the upper jaws.

dental plaque = test: Presence of dental plaque (erythrosine staining) in beagle dogs given delmopinol dog snack; conditions: for Number of sites with presence of dental plaque on the buccal surfaces: upper jaw (UJ), dogs 1-4 and Sum
Method: (§1) A study was carried out to investigate the effect of dog snacks containing delmopinol on gingivitis and calculus formation in beagle dogs. Eight female dogs were used in the study. […] During a pre-experimental period of four weeks, the teeth in the upper jaws of all dogs were scaled and polished professionally with a rubber cup, pumice and water, on a weekly basis. The teeth of the upper jaws were also thoroughly brushed with a toothbrush and water, for 2 minutes daily. The teeth in the lower jaws were not cleaned. During this pre-experimental period the dogs were fed a soft gingivitis-inducing diet. Using these procedures, two different clinical conditions prevailed in the dogs at the end of the pre-experimental period: in the upper jaw the gingiva was clinically healthy while in the lower jaws gingivitis prevailed. […] In the upper jaws, the presence of plaque and gingivitis was measured at the buccal surfaces of canines, first, second, third, fourth premolars and first molars. In the lower jaws the measurements were undertaken at the buccal surfaces of canines and first molars, in total […] were examined clinically. 12 surfaces were clinically healthy prior to the experimental period and 4 surfaces were not maintained with oral hygiene measures. All experimental procedures, (except the tooth brushing during the pre-experimental period) were performed with the dogs anaesthetized by intravenous Pentothal (Abbot, Belgium). […] The various measurements were taken on days 0, 14 and 28. Clinical photos were taken of the upper jaws at the same occasions as the measurements. The presence of plaque was scored following staining of the teeth with erythrosine dye. Plaque was noted if stained dental plaque was in contact with the buccal gingival margin.

gingivitis = test: Bleeding on probing (gingivitis) in beagle dogs given delmopinol dog snack; conditions: for Number of sites with gingival bleeding at the buccal surfaces: dogs 1-4 and Sum
Method: as §1, with “Bleeding on probing” for “The presence of plaque”, “scored according to Löe, H and Silness, J (1963) Periodontal disease in pregnancy. Prevalence and severity. Acta Odontologica Scandinavia 21, 533-551. Presence of gingivitis was registered if bleeding occurred within 20 seconds” for “scored”, “gentle probing” for “staining”, “of” for “of the teeth with erythrosine dye. Plaque was noted if stained dental plaque was in contact with”

Question: For CCCC(CCC)CCCC1COCCN1CCO (stereo not drawn) [Delmopinol, 3-(4-propyl-heptyl)-4-(2-hydroxyethyl)morpholine], which “Number of teeth with calculus on the buccal surfaces of the teeth of the upper jaw” value (from here on “Number of teeth with calculus … of the upper jaw”) (calculus formation; Day 0 (baseline), n = 48 measured sites) is on record?
Answer: 0 teeth

Question: What about the “Number of teeth with calculus … of the upper jaw” value (calculus formation; Day 0 (baseline), n = 48 measured sites, listed as delmopinol) of the same compound?
Answer: None

Question: And the “Number of teeth with calculus … of the upper jaw” value (calculus formation; Day 14, n = 48 measured sites)?
Answer: 6 teeth

Question: What about the “Number of teeth with calculus … of the upper jaw” value (calculus formation; Day 28, n = 48 measured sites) of the same compound?
Answer: 37 teeth

Question: And the “calculus formation versus control” value (calculus formation; in the presence of dental plaque and with a calculus-promoting soft diet)?
Answer: strongly reduced

Question: What about the “Number of sites with presence of dental plaque on the buccal surfaces” value (from here on “Number of sites … on the buccal surfaces”) (dental plaque; Day 0 (baseline), n = 48 sites in sum) of the same compound?
Answer: 0 sites

Question: And the “Number of sites … on the buccal surfaces” value (dental plaque; Day 0 (baseline), n = 48 sites in sum, listed as delmopinol)?
Answer: plaque free

Question: What about the “reduction in the presence of dental plaque relative the control dogs” value (dental plaque; Day 14, upper jaw) of the same compound?
Answer: around 20%

Question: And the “Number of sites … on the buccal surfaces” value (dental plaque; Day 28 (14 days after last snack), n = 48)?
Answer: all teeth

Question: What about the plaque accumulation (dental plaque; snacks with or without the tested component) of the same compound?
Answer: did not alter

Question: What about the “Number of sites with gingival bleeding at the buccal surfaces” value (shortened to “Number of sites with gingival bleeding”) (gingivitis; Day 0 (baseline), lower jaw (LJ), n = 16) of the same compound?
Answer: 15 sites

Question: And the “Number of sites with gingival bleeding” value (gingivitis; Day 0 (baseline), upper jaw (UJ), n = 48)?
Answer: one

Question: And the “Number of sites with gingival bleeding” value (gingivitis; Day 14, lower jaw (LJ), n = 16)?
Answer: five

Question: And the “Number of sites with gingival bleeding” value (gingivitis; Day 14, upper jaw (UJ), n = 48)?
Answer: 13 sites

Question: And the “Number of sites with gingival bleeding” value (gingivitis; Day 28, lower jaw (LJ), n = 16)?
Answer: 12 sites

Question: What about the “Number of sites with gingival bleeding” value (gingivitis; Day 28, upper jaw (UJ), n = 48) of the same compound?
Answer: 21 sites

Question: What about the “reduction of established gingivitis” value (gingivitis; delmopinol added in the snack, snack alone 50%, lower jaw, day 0 to day 14) of the same compound?
Answer: 69%

Question: What about the “increase of inflammation after stopping pre-experimental oral hygiene, versus control group” value (gingivitis; paired t-test p=0.05) of the same compound?
Answer: significantly less
